Test results published in US20240132498A1, “CRYSTALLINE FORMS OF 5-(3,4-DIFLUOROBENZYL)-8-((1R,4R)-4-METHYLCYCLOHEXYL)-6,9-DIOXO-2,5,8-TRIAZASPIRO[3.5]NONANE-2-CARBALDEHYDE” (Cytokinetics, Incorporated, priority 2022, published 2024).

Assays:
Format in all cases: in vitro ADME
[1] = target: T1, CYP3A4-T (Homo sapiens, UniProt P08684); test: Time-dependent inhibition of CYP450 enzymes in human liver microsomes: CYP3A4-T (testosterone probe); details: for (% Activity NADPH T0)/(% Activity NADPH T30): CYP3A4-T (testosterone probe); for fold change in enzyme activity (time dependent inhibition), 3A4: human liver microsomes, testosterone probe, time zero vs 30 minutes incubation, 25 and 50 μM
T1 construct: from tissue; host or cells: pooled human liver microsomes
T1 sequence (P08684 whole entry): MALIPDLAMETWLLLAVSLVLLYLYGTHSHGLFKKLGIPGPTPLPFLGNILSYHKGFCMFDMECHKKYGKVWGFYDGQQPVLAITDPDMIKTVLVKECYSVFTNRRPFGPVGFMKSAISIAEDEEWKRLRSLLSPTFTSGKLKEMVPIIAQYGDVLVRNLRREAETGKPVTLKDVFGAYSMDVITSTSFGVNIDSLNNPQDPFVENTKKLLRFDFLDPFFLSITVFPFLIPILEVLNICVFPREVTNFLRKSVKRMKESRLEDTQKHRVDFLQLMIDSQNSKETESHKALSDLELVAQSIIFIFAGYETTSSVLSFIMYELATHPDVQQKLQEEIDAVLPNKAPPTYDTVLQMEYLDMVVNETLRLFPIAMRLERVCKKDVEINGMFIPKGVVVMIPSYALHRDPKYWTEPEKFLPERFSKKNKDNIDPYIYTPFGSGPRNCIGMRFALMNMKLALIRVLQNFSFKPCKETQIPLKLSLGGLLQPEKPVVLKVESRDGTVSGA
Method: (§1) An assessment of the time-dependent Inhibitory Potential of the test compounds against Principal Human Cytochrome P450 Isozymes using Human Liver Microsomes was also carried out using standard methods (Grimm et al, Drug Metab. Dispos., Jul; 37(7):1355-70. doi: 10.1124/dmd.109.026716, 2009). Pooled human microsomes and selective CYP probe substrates were used for in vitro assessment of test compounds at 25 and 50 μM as time-dependent inhibitors of […] human hepatic cytochrome P450 isozymes (CYP1A2, 2B6, 2C9, 2C19, 2D6, and 3A4). LC-MS/MS was used to quantify metabolite formation. The inhibition of each P450 enzyme in human liver microsomes was measured as the percentage decrease in the activity of marker metabolite formation as measured by LC-MS/MS compared to non-inhibited controls (=100% activity) at time zero and after 30 minutes incubation. The occurrence of any time dependent inhibition was then expressed as the fold change in enzyme activity at time zero relative to the activity after 30 minutes incubation. The time dependent inhibition for the compound 5-(3,4-difluorobenzyl)-8-((1 r,4r)-4-methylcyclohexyl)-6,9-dioxo-2,5, 8-triazaspiro [3.5]nonane-2-carbaldehyde (Compound 1) against CYP1A2, […], CYP2C8, CYP2C9, CYP2C19, CYP2D6, CYP3A4-M and CYP3A4-T is shown in Table B-12.

[2] = target: T2, CYP3A4 (Homo sapiens, UniProt P08684); test: as above; details: human, pooled human liver microsomes, CYP3A4-T (testosterone probe); for activity at 30 min, 25 µM / activity at 30 min, 50 µM: 30 minutes incubation, read-out: % Activity NADPH T30; for activity at 0 min, 25 µM / activity at 0 min, 50 µM: time zero, read-out: % Activity NADPH T0
T2 construct: from tissue; host or cells: pooled human liver microsomes
T2 sequence (P08684 whole entry): as above
Method: as §1

[3] = target: T3, CYP1A2 (Homo sapiens, UniProt P05177); test: Time-dependent inhibition of CYP450 enzymes in human liver microsomes: CYP1A2
T3 construct: from tissue; host or cells: pooled human liver microsomes
T3 sequence (P05177 1-516): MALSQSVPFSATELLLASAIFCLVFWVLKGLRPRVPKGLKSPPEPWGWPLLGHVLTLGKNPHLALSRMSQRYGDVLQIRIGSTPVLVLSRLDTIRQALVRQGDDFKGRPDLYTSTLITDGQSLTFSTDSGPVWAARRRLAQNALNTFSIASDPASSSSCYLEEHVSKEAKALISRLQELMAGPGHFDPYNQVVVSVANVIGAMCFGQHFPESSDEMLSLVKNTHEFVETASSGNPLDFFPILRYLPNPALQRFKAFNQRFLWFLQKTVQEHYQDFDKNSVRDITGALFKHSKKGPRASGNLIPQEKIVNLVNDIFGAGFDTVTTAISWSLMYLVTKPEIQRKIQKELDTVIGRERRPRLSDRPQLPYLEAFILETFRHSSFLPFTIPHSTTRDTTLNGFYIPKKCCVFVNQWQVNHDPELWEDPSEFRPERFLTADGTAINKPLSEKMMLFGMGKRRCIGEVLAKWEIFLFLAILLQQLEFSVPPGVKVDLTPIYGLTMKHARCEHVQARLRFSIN
Method: as §1

[4] = target: T4, CYP2C19 (Homo sapiens, UniProt P33261); test: Time-dependent inhibition of CYP450 enzymes in human liver microsomes: CYP2C19; details: for fold change in activity (time dependent inhibition), 2C19: human liver microsomes
T4 construct: from tissue; host or cells: pooled human liver microsomes
T4 sequence (P33261 whole entry): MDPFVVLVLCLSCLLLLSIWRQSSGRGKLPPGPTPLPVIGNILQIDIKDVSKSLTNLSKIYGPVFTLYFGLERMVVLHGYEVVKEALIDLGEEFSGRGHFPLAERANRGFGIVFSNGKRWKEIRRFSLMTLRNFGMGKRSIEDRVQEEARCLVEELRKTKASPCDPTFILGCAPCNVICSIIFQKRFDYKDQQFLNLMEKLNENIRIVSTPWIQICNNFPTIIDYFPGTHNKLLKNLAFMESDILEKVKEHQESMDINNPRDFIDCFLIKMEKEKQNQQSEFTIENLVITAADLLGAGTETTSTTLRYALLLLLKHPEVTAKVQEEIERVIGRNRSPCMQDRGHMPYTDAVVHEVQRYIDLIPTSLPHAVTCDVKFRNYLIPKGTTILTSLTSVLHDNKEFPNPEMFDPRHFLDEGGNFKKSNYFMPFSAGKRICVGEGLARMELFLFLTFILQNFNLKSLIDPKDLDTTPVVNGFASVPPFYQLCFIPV
Method: as §1

[5] = target: T5, CYP2C8 (Homo sapiens, UniProt P10632); test: Time-dependent inhibition of CYP450 enzymes in human liver microsomes: CYP2C8
T5 construct: from tissue; host or cells: pooled human liver microsomes
T5 sequence (P10632 1-490): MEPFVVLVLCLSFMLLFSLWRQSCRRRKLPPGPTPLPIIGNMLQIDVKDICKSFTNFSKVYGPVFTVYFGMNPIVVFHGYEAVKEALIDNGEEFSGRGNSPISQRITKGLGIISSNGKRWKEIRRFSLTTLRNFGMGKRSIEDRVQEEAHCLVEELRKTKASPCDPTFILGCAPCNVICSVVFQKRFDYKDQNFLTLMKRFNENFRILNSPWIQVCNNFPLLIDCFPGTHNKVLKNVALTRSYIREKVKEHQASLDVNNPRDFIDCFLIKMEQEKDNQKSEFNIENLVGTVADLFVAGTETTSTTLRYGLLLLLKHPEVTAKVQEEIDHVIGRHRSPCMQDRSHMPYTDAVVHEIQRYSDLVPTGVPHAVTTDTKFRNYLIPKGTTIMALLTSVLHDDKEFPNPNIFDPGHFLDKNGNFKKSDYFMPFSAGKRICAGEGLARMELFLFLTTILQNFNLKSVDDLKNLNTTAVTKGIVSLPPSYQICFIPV
Method: as §1

[6] = target: T6, CYP3A4-M (Homo sapiens, UniProt P08684); test: Time-dependent inhibition of CYP450 enzymes in human liver microsomes: CYP3A4-M (midazolam probe); details: for (% Activity NADPH T0)/(% Activity NADPH T30): CYP3A4-M (midazolam probe); for fold change in enzyme activity (time dependent inhibition), 3A4: human liver microsomes, midazolam probe, time zero vs 30 minutes incubation, 25 and 50 μM
T6 construct: from tissue; host or cells: pooled human liver microsomes
T6 sequence (P08684 whole entry): as the sequence (P08684 whole entry) above
Method: as §1

Row | Compound | (% Activity NADPH T0)/(% Activity NADPH T30) ([1]; 25 μM) | (% Activity NADPH T0)/(% Activity NADPH T30) ([1]; 50 μM) | fold change in enzyme activity (time dependent inhibition), 3A4 [1] [fold] | activity at 30 min, 25 µM [2] [%] | activity at 0 min, 25 µM [2] [%] | activity at 30 min, 50 µM [2] [%] | activity at 0 min, 50 µM [2] [%] | (% Activity NADPH T0)/(% Activity NADPH T30) ([6]; 25 μM) | (% Activity NADPH T0)/(% Activity NADPH T30) ([6]; 50 μM) | fold change in enzyme activity (time dependent inhibition), 3A4 [6] [fold] | further results
1 | C[C@H]1CC[C@H](N2CC(=O)N(Cc3ccc(F)c(F)c3)C3(CN(C=O)C3)C2=O)CC1 [Compound 1, 5-(3,4-difluorobenzyl)-8-((1r,4r)-4-methylcyclohexyl)-6,9-dioxo-2,5,8-triazaspiro[3.5]nonane-2-carbaldehyde] | 0.9 | 0.8 | ≤ 1.2 | 90 | 80 | 98 | 83 | 0.8 | 0.7 | ≤ 1.2 | (% Activity NADPH T0)/(% Activity NADPH T30) ([3]; CYP1A2, 25 μM): 1.1; (% Activity NADPH T0)/(% Activity NADPH T30) ([3]; CYP1A2, 50 μM): 1.0; activity at 30 min, 25 µM ([3]; human, pooled human liver microsomes, CYP1A2, 25 μM, 30 minutes incubation, read-out: % Activity NADPH T30): 90%; activity at 0 min, 25 µM ([3]; human, pooled human liver microsomes, CYP1A2, 25 μM, time zero, read-out: % Activity NADPH T0): 95%; activity at 30 min, 50 µM ([3]; human, pooled human liver microsomes, CYP1A2, 50 μM, 30 minutes incubation, read-out: % Activity NADPH T30): 85%; activity at 0 min, 50 µM ([3]; human, pooled human liver microsomes, CYP1A2, 50 μM, time zero, read-out: % Activity NADPH T0): 86%; (% Activity NADPH T0)/(% Activity NADPH T30) ([4]; CYP2C19, 25 μM): 1.4; (% Activity NADPH T0)/(% Activity NADPH T30) ([4]; CYP2C19, 50 μM): 1.1; fold change in activity (time dependent inhibition), 2C19 ([4]; 25 μM): 1.4 fold; fold change in activity (time dependent inhibition), 2C19 ([4]; 50 μM): no change in activity; activity at 30 min, 25 µM ([4]; human, pooled human liver microsomes, CYP2C19, 25 μM, 30 minutes incubation, read-out: % Activity NADPH T30): 86%; activity at 0 min, 25 µM ([4]; human, pooled human liver microsomes, CYP2C19, 25 μM, time zero, read-out: % Activity NADPH T0): 117%; activity at 30 min, 50 µM ([4]; human, pooled human liver microsomes, CYP2C19, 50 μM, 30 minutes incubation, read-out: % Activity NADPH T30): 75%; activity at 0 min, 50 µM ([4]; human, pooled human liver microsomes, CYP2C19, 50 μM, time zero, read-out: % Activity NADPH T0): 84%; (% Activity NADPH T0)/(% Activity NADPH T30) ([5]; CYP2C8, 25 μM): 1.0; (% Activity NADPH T0)/(% Activity NADPH T30) ([5]; CYP2C8, 50 μM): 1.2; activity at 30 min, 25 µM ([5]; human, pooled human liver microsomes, CYP2C8, 25 μM, 30 minutes incubation, read-out: % Activity NADPH T30): 80%; activity at 0 min, 25 µM ([5]; human, pooled human liver microsomes, CYP2C8, 25 μM, time zero, read-out: % Activity NADPH T0): 79%; activity at 30 min, 50 µM ([5]; human, pooled human liver microsomes, CYP2C8, 50 μM, 30 minutes incubation, read-out: % Activity NADPH T30): 79%; activity at 0 min, 50 µM ([5]; human, pooled human liver microsomes, CYP2C8, 50 μM, time zero, read-out: % Activity NADPH T0): 97%
2 | O=C1[C@H](C2COC2)N(Cc2ccc(C(F)(F)F)cc2)C(=O)CN1c1ncc(Cl)cc1F [Comparator C, (S)-1-(5-chloro-3-fluoropyridin-2-yl)-3-(oxetan-3-yl)-4-(4-(trifluoromethyl)benzyl)piperazine-2,5-dione, reference compound] | 1.8 | 1.8 | > 1.5 | 23 | 41 | 19 | 35 | 1.6 | 1.7 | > 1.5 | –
